Where “and” joins values, the source holds several entries; their conditions need not be identical. Equal values may be shown once. ± gives the expanded uncertainty stated by the source.
Assay: activity coefficient (dimensionless); of the first substance listed, at infinite dilution; xn = mol fraction of the nth substance listed
Conditions: Liquid, Chromatography, x1 = 0

## c1ccccc1 [benzene] + CCCCCC[n+]1ccn(C)c1.O=S(=O)([N-]S(=O)(=O)C(F)(F)F)C(F)(F)F
301.65 K
  activity coefficient: 0.779 and 0.778
306.95 K
  activity coefficient: 0.776 ± 0.051
312.25 K
  activity coefficient: 0.776 ± 0.051
322.75 K
  activity coefficient: 0.777 ± 0.051
322.85 K
  activity coefficient: 0.773 ± 0.051
333.25 K
  activity coefficient: 0.777 and 0.774
343.75 K
  activity coefficient: 0.769 ± 0.05

## CCCCO [butan-1-ol] + CCCCCC[n+]1ccn(C)c1.O=S(=O)([N-]S(=O)(=O)C(F)(F)F)C(F)(F)F
322.65 K
  activity coefficient: 2.06 ± 0.14
333.15 K
  activity coefficient: 1.83 ± 0.12
343.65 K
  activity coefficient: 1.67 ± 0.11
354.15 K
  activity coefficient: 1.53 ± 0.1

## CCC(C)O (stereo not given) [butan-2-ol] + CCCCCC[n+]1ccn(C)c1.O=S(=O)([N-]S(=O)(=O)C(F)(F)F)C(F)(F)F
301.65 K
  activity coefficient: 2.14 ± 0.15
312.15 K
  activity coefficient: 1.9 ± 0.13
322.85 K
  activity coefficient: 1.66 ± 0.11
333.35 K
  activity coefficient: 1.47 ± 0.1

## CCCC=O [butanal] + CCCCCC[n+]1ccn(C)c1.O=S(=O)([N-]S(=O)(=O)C(F)(F)F)C(F)(F)F
301.75 K
  activity coefficient: 0.578 ± 0.041
312.25 K
  activity coefficient: 0.576 ± 0.041
322.85 K
  activity coefficient: 0.574 ± 0.041
333.35 K
  activity coefficient: 0.572 ± 0.041

## CCCCc1ccccc1 [butylbenzene] + CCCCCC[n+]1ccn(C)c1.O=S(=O)([N-]S(=O)(=O)C(F)(F)F)C(F)(F)F
354.25 K
  activity coefficient: 2.72 ± 0.19
364.65 K
  activity coefficient: 2.69 ± 0.18
375.15 K
  activity coefficient: 2.66 ± 0.18
385.65 K
  activity coefficient: 2.62 ± 0.18

## C1CCCCC1 [cyclohexane] + CCCCCC[n+]1ccn(C)c1.O=S(=O)([N-]S(=O)(=O)C(F)(F)F)C(F)(F)F
300.95 K
  activity coefficient: 5.65 ± 0.39
312.25 K
  activity coefficient: 5.23 ± 0.36
322.85 K
  activity coefficient: 4.9 ± 0.33
333.25 K
  activity coefficient: 4.59 ± 0.31

## OC1CCCCC1 [cyclohexanol] + CCCCCC[n+]1ccn(C)c1.O=S(=O)([N-]S(=O)(=O)C(F)(F)F)C(F)(F)F
354.05 K
  activity coefficient: 1.87 ± 0.13
364.55 K
  activity coefficient: 1.6 ± 0.11
374.95 K
  activity coefficient: 1.43 ± 0.09
385.45 K
  activity coefficient: 1.29 ± 0.08
395.95 K
  activity coefficient: 1.2 ± 0.08

## C1=CCCCC1 [cyclohexene] + CCCCCC[n+]1ccn(C)c1.O=S(=O)([N-]S(=O)(=O)C(F)(F)F)C(F)(F)F
301.85 K
  activity coefficient: 3.41 ± 0.23
312.25 K
  activity coefficient: 3.24 ± 0.22
322.85 K
  activity coefficient: 3.08 ± 0.21
333.25 K
  activity coefficient: 2.94 ± 0.2
343.75 K
  activity coefficient: 2.83 ± 0.19

## CCCCCCCCCC [decane] + CCCCCC[n+]1ccn(C)c1.O=S(=O)([N-]S(=O)(=O)C(F)(F)F)C(F)(F)F
307.05 K
  activity coefficient: 28.5 ± 1.9
312.35 K
  activity coefficient: 27.4 ± 1.9
322.85 K
  activity coefficient: 25.6 ± 1.8
333.35 K
  activity coefficient: 22.9 ± 1.6

## CCCCCCCCCCCC [dodecane] + CCCCCC[n+]1ccn(C)c1.O=S(=O)([N-]S(=O)(=O)C(F)(F)F)C(F)(F)F
333.35 K
  activity coefficient: 39.6 ± 2.7
343.75 K
  activity coefficient: 36.4 ± 2.5
354.25 K
  activity coefficient: 34.2 ± 2.3
364.75 K
  activity coefficient: 30.3 ± 2.1

## CCO [ethanol] + CCCCCC[n+]1ccn(C)c1.O=S(=O)([N-]S(=O)(=O)C(F)(F)F)C(F)(F)F
301.95 K
  activity coefficient: 1.95 ± 0.13
312.45 K
  activity coefficient: 1.71 ± 0.11
323.05 K
  activity coefficient: 1.51 ± 0.1
333.45 K
  activity coefficient: 1.35 ± 0.09
343.95 K
  activity coefficient: 1.2 ± 0.08
354.45 K
  activity coefficient: 1.08 ± 0.07

## CCc1ccccc1 [ethylbenzene] + CCCCCC[n+]1ccn(C)c1.O=S(=O)([N-]S(=O)(=O)C(F)(F)F)C(F)(F)F
322.85 K
  activity coefficient: 1.55 ± 0.1
333.35 K
  activity coefficient: 1.55 ± 0.1
343.85 K
  activity coefficient: 1.54 ± 0.1
354.25 K
  activity coefficient: 1.53 ± 0.1

## CCCCCCCO [heptan-1-ol] + CCCCCC[n+]1ccn(C)c1.O=S(=O)([N-]S(=O)(=O)C(F)(F)F)C(F)(F)F
354.05 K
  activity coefficient: 4.61 ± 0.31
364.63 K
  activity coefficient: 4.13 ± 0.28
375.05 K
  activity coefficient: 3.73 ± 0.25
385.6 K
  activity coefficient: 3.42 ± 0.23

## CCCCCCC=O [heptanal] + CCCCCC[n+]1ccn(C)c1.O=S(=O)([N-]S(=O)(=O)C(F)(F)F)C(F)(F)F
343.55 K
  activity coefficient: 1.11 ± 0.07
354.05 K
  activity coefficient: 1.07 ± 0.068
364.45 K
  activity coefficient: 1.02 ± 0.064
374.95 K
  activity coefficient: 0.97 ± 0.061
385.35 K
  activity coefficient: 0.92 ± 0.058
395.95 K
  activity coefficient: 0.9 ± 0.057

## CCCCCCC [heptane] + CCCCCC[n+]1ccn(C)c1.O=S(=O)([N-]S(=O)(=O)C(F)(F)F)C(F)(F)F
300.95 K
  activity coefficient: 11.2 ± 0.76
312.25 K
  activity coefficient: 10.4 ± 0.71
322.85 K
  activity coefficient: 9.69 ± 0.66
333.25 K
  activity coefficient: 9.09 ± 0.62
343.75 K
  activity coefficient: 8.65 ± 0.59

## CCCCCCO [hexan-1-ol] + CCCCCC[n+]1ccn(C)c1.O=S(=O)([N-]S(=O)(=O)C(F)(F)F)C(F)(F)F
354.05 K
  activity coefficient: 2.18 ± 0.15
364.55 K
  activity coefficient: 1.97 ± 0.13
374.95 K
  activity coefficient: 1.82 ± 0.12
385.45 K
  activity coefficient: 1.67 ± 0.11
395.95 K
  activity coefficient: 1.56 ± 0.1

Source: the NIST ThermoML archive (doi:10.1021/je0503554)
